From patent US11760717B2, “Resin composition and fluidity improvement method” (Osaka Gas Chemicals Co., Ltd., priority 2020, dated 2023)

What was measured:
[1] = 5% mass reduction temperature (TG-DTA); assay type: physicochemical; conditions: nitrogen atmosphere, 50 to 400° C., heating rate 10° C./min
Experimental: (5% Mass Reduction Temperature)
The temperature, at which the mass of the sample is reduced by 5% by mass, was measured using a Thermogravimeter-Differential Thermal Analyzer (TG-DTA) (manufactured by PerkinElmer, Inc., “TGA-4000”) in a nitrogen atmosphere, under the condition of a measurement temperature range of 50 to 400° C. with a heating rate of 10° C./min.

[2] = Visual confirmation of extruded thread shaped sample (compatibility of resin and additive); assay type: physicochemical; conditions: thread shaped sample extruded from the resin composition, visually confirmed
Experimental: When a thread shaped sample obtained by extruding the resin composition was visually confirmed, the resin and the additive were compatible with each other without becoming cloudy in each of samples.
For each of Examples, the PA66 as a resin and AAD-FL as an additive were kneaded at a ratio shown in Table 3 to prepare a resin composition. Kneading was performed using a twin-screw extruder (manufactured by Parker Corporation, “HK25D”, L/D=41, screw diameter: 25 mm) under the conditions of a temperature of 270° C., a screw rotation speed of 150 rpm, and a discharge amount of 6 kg/hour. When a thread shaped sample obtained by extruding the resin composition was visually confirmed, the resin and the additive were compatible with each other without becoming cloudy in each of samples in Examples 4 to 6, as in Example 3.

## CN(C)C(=O)CCC1(CCC(=O)N(C)C)c2ccccc2-c2ccccc21 [DMAA-FL, 9,9-bis[2-(N,N-dimethylcarbamoyl)ethyl]fluorene]
[1]
  5% mass reduction temperature: 318 °C

## NC(=O)CCC1(CCC(N)=O)c2ccccc2-c2ccccc21 [AAD-FL, 9,9-bis(2-carbamoylethyl)fluorene]
[2]
  compatibility of resin and additive: compatible with the resin
[1]
  5% mass reduction temperature: 320 °C

## CCN(CC)C(=O)CCC1(CCC(=O)N(CC)CC)c2ccccc2-c2ccccc21 [DEAA-FL, 9,9-bis[2-(N,N-diethylcarbamoyl)ethyl]fluorene]
[1]
  5% mass reduction temperature: 294 °C

## CC(C)NC(=O)CCC1(CCC(=O)NC(C)C)c2ccccc2-c2ccccc21 [NIPAM-FL, 9,9-bis[2-(N-isopropylcarbamoyl)ethyl]fluorene]
[1]
  5% mass reduction temperature: 257 °C
